Reference: publication PMC9138090, “Study on the Neuroprotective, Radical-Scavenging and MAO-B Inhibiting Properties of New Benzimidazole Arylhydrazones as Potential Multi-Target Drugs for the Treatment of Parkinson’s Disease” (Antioxidants, 2022)
“Also recorded” adds a separate entry of the source.

What was measured:
[1] = Fe(II)-induced degradation of 2-deoxyribose (TBA-RS); conditions: 80 µmol/L, 2-deoxyribose 0.5 mmol/L
Procedure: The classical method of determining the TBA-reactive substances at 532 nm as described by Asakawa and Matsushita has been used. Two groups of measurement compositions named controls and samples were prepared in phosphate buffer (K2HPO4/KH2PO4, pH 7.4) for each of the used substrates. Both of them contained equivalent concentrations of lecithin (1 mg/mL) or 2-deoxyribose (0.5 mmol/L) and FeCl2 (0.1 mmol/L). In the controls, the tested hydrazones have been omitted and in the samples the effect of the newly designed compounds at the concentrations indicated below the figures has been determined. The obtained samples were incubated at 37 °C for 30 min. The reaction was stopped, and after adding 0.5 mL 2.8% trichloroacetic acid and 0.5 mL of thiobarbituric acid, the samples were heated in boiling water for 20 min. The lecithin containing samples were centrifuged at 3000 rpm for 20 min and the supernatant was aspired out. The results have been presented as a percentage of the control sample, treated only with ferrous iron where we expected maximum oxidative damage under the described conditions.

rat brain synaptosomes = assay: 6-OHDA-induced neurotoxicity, GSH level; assay type: cell-based; conditions: 10 µM pretreatment, 6-OHDA 150 mmol/L 1 h
Procedure: Synaptosomes were prepared from brains of adult male Wistar rats. The brains were homogenized in 10 volume of cold buffer 1, containing 5 mM HEPES and 0.32 M sucrose (pH = 7.4). The brain homogenate was centrifuged twice at 1000× g for 5 min at 4 °C. The supernatant was collected and centrifuged 3 times at 10,000× g for 20 min at 4 °C. The pellet was re-suspended in ice-cold buffer 1. The synaptosomes were isolated by using Percoll reagent to prepare the gradient. Synaptosomes were re-suspended and incubated in buffer 2, containing 290 mM NaCl, 0.95 mM MgCl2 × 6H2O, 10 mM KCl, 2.4 mM CaCl2 × H2O, 2.1 mM NaH2PO4, 44 mM HEPES, and 13 mM D-glucose. Incubations were performed in a 5% CO2 + 95% O2 atmosphere. The content of synaptosomal protein was determined according to the method of Lowry et al. using bovine serum albumin as a standard.
The metabolism and oxidation of dopamine cause reactive oxygen radicals and reactive quinones to be produced, which could lead to neurotoxicity and neurodegeneration. The synaptosomes were incubated with the compounds (10 µM) for 30 min and then 6-hydroxydopamnine (150 mmol/L) was used to induce neurotoxicity. […] After 1 h, they were centrifuged on a microcentrifuge for 1 min at 15,000 rpm. The precipitates were gently mixed with buffer B and glucose and centrifuged for a second time at 15,000 rpm for 1 min. After the second wash, buffer B and glucose were added to the precipitates.
In the presented experiments, an in vitro assessment of the possible antioxidant and neuroprotective effects of the newly synthetized compounds was performed in a model of 6-OHDA induced toxicity in rat brain synaptosomes. 6-OHDA is a neurotoxicant that structurally resembles dopamine and can be used in different in vivo and in vitro models for neurotoxicity. This model resembles the histological, biochemical, and physiological characteristics of neurodegenerative diseases such as Parkinson’s and Alzheimer’s disease. […] However, their uptake into brain synaptosomes is similar among primates and rodents and they are suitable in vitro models for PD. The main mechanism of 6-OHDA toxicity includes induction of oxidative stress. It undergoes auto-oxidation or metabolic degradation to p-quinone and produces hydrogen peroxide, superoxide, and hydroxyl radicals. The process causes lipid peroxidation, protein oxidation, and DNA oxidation and finally results in oxidative stress and mitochondrial dysfunction. Rat brain synaptosomes were pretreated with compounds 3e, 3h, 3i, 3m, melatonin, and rasagiline (10 μM); after that, the samples were subjected to 6-OHDA (150 mmol/L, 1 h). The protective effects were evaluated by measurement of synaptosomal viability (MTT-test) and GSH levels (Figure 3).

SMILES: O=C(CCn1c(=S)n(CCC(=O)NN=Cc2cccc(O)c2O)c2ccccc21)NN=Cc1cccc(O)c1O [3h, 3,3′-(2-Thioxo-1H-benzo[d]imidazole-1,3(2H)-diyl)bis(N′-(2,3-dihydroxybenzylidene)propanehydrazide)]
- antioxidant effect on Fe(II) induced deoxyribose degradation (in words) [1]: stronger than the reference melatonin and similar to Trolox; also recorded: better protection effect than the reference melatonin, and a similar effect to the antioxidant Trolox
- restoration of GSH level vs. 6-OHDA treatment (rat brain synaptosomes): 62%
